Reference: PubChem BioAssay AID1918945 (Molecular Pharmacology Branch, DTP, NCI, 2023)

Tested on: 883617-216-R-J1-PDC complex spheroid viability
Assay: Anticancer human tumor 883617-216-R-J1-PDC patient-derived bladder carcinoma cell line growth inhibition
Conditions: for IC50: curve of first compound; for viability, T/C: stronger effect = lower value
In short: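 Complex spheroids of tumor cells with HUVEC and human MSCs, exposed to iadademstat combined with other agents. Each agent tested in half-log steps from near clinical Cmax (else 10 microM top), DMSO ≤0.25%.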

[1] = second compound 0.1 µM, first compound 0.00949 µM
[2] = second compound 0.1 µM, first compound 0.03 µM
[3] = second compound 0.1 µM, first compound 0.0949 µM
[4] = second compound 0.1 µM, first compound 0.3 µM
[5] = second compound 0.316 µM, first compound 0.00949 µM
[6] = second compound 0.316 µM, first compound 0.03 µM
[7] = second compound 0.316 µM, first compound 0.0949 µM
[8] = second compound 0.316 µM, first compound 0.3 µM
[9] = second compound 1 µM, first compound 0.00949 µM
[10] = second compound 1 µM, first compound 0.03 µM
[11] = second compound 1 µM, first compound 0.0949 µM
[12] = second compound 1 µM, first compound 0.3 µM
[13] = second compound 3.16 µM, first compound 0.00949 µM
[14] = second compound 3.16 µM, first compound 0.03 µM
[15] = second compound 3.16 µM, first compound 0.0949 µM
[16] = second compound 3.16 µM, first compound 0.3 µM
[17] = second compound 10 µM, first compound 0.00949 µM
[18] = second compound 10 µM, first compound 0.03 µM
[19] = second compound 10 µM, first compound 0.0949 µM
[20] = second compound 10 µM, first compound 0.3 µM
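Note: exposure lasted seven days after three days of spheroid growth.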
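Throughout, for viability, T/C: 100% = DMSO vehicle control luminescence.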

For `CC1(C)CCC(CN2CCN(c3ccc(C(=O)NS(=O)(=O)c4ccc(NCC5CCOCC5)c([N+](=O)[O-])c4)c(Oc4cnc5[nH]ccc5c4)c3)CC2)=C(c2ccc(Cl)cc2)C1` + NC1CCC(NC2CC2c2ccccc2)CC1, the IC50 (second compound 0.1 µM) was 7.33 µM, the IC50 (second compound 0.316 µM) was 7.54 µM and the IC50 (second compound 1 µM) was 7.34 µM. For the same compound, the IC50 (second compound 3.16 µM) was 7.34 µM, the IC50 (second compound 10 µM) was 7.1 µM and the viability, T/C (second compound 0.1 µM, first compound 0.0316 µM) was 108%. It also gave a viability, T/C (second compound 0.1 µM, first compound 0.1 µM) of 114%, a viability, T/C (second compound 0.1 µM, first compound 0.316 µM) of 109% and a viability, T/C (second compound 0.1 µM, first compound 1 µM) of 104%. The viability, T/C (second compound 0.1 µM, first compound 3.16 µM) was 109%, the viability, T/C (second compound 0.1 µM, first compound 10 µM) was 28.3% and the viability, T/C (second compound 0.316 µM, first compound 0.0316 µM) was 111%. The viability, T/C (second compound 0.316 µM, first compound 0.1 µM) was 106%, the viability, T/C (second compound 0.316 µM, first compound 0.316 µM) was 122% and the viability, T/C (second compound 0.316 µM, first compound 1 µM) was 109%. The viability, T/C (second compound 0.316 µM, first compound 3.16 µM) was 125%, the viability, T/C (second compound 0.316 µM, first compound 10 µM) was 28.9% and the viability, T/C (second compound 1 µM, first compound 0.0316 µM) was 105%. For the same compound, the viability, T/C (second compound 1 µM, first compound 0.1 µM) was 110%, the viability, T/C (second compound 1 µM, first compound 0.316 µM) was 118% and the viability, T/C (second compound 1 µM, first compound 1 µM) was 110%. For the same compound, the viability, T/C (second compound 1 µM, first compound 3.16 µM) was 113%, the viability, T/C (second compound 1 µM, first compound 10 µM) was 27.4% and the viability, T/C (second compound 3.16 µM, first compound 0.0316 µM) was 104%. The viability, T/C (second compound 3.16 µM, first compound 0.1 µM) was 114%, the viability, T/C (second compound 3.16 µM, first compound 0.316 µM) was 110% and the viability, T/C (second compound 3.16 µM, first compound 1 µM) was 114%. It also gave a viability, T/C (second compound 3.16 µM, first compound 3.16 µM) of 120%, a viability, T/C (second compound 3.16 µM, first compound 10 µM) of 27% and a viability, T/C (second compound 10 µM, first compound 0.0316 µM) of 107%. It also gave a viability, T/C (second compound 10 µM, first compound 0.1 µM) of 102%, a viability, T/C (second compound 10 µM, first compound 0.316 µM) of 108% and a viability, T/C (second compound 10 µM, first compound 1 µM) of 110%. It also gave a viability, T/C (second compound 10 µM, first compound 3.16 µM) of 118% and a viability, T/C (second compound 10 µM, first compound 10 µM) of 24.8%.

Work on `CCN(c1cc(-c2ccc(CN3CCOCC3)cc2)cc(C(=O)NCc2c(C)cc(C)[nH]c2=O)c1C)C1CCOCC1` + NC1CCC(NC2CC2c2ccccc2)CC1 yielded an IC50 (second compound 0.1 µM) greater than 3 µM, an IC50 (second compound 0.316 µM) greater than 3 µM and an IC50 (second compound 1 µM) greater than 3 µM. For the same compound, the IC50 (second compound 3.16 µM) was greater than 3 µM, the IC50 (second compound 10 µM) was greater than 3 µM and the viability, T/C [1] was 96.4%. The viability, T/C [2] was 85%, the viability, T/C [3] was 86.9% and the viability, T/C [4] was 84.7%. For the same compound, the viability, T/C (second compound 0.1 µM, first compound 0.949 µM) was 90.7%, the viability, T/C (second compound 0.1 µM, first compound 3 µM) was 80.8% and the viability, T/C [5] was 95.8%. The viability, T/C [6] was 98.8%, the viability, T/C [7] was 93.1% and the viability, T/C [8] was 87.6%. The viability, T/C (second compound 0.316 µM, first compound 0.949 µM) was 89.1%, the viability, T/C (second compound 0.316 µM, first compound 3 µM) was 86% and the viability, T/C [9] was 90.2%. The viability, T/C [10] was 89.5%, the viability, T/C [11] was 83.8% and the viability, T/C [12] was 88.4%. For the same compound, the viability, T/C (second compound 1 µM, first compound 0.949 µM) was 90%, the viability, T/C (second compound 1 µM, first compound 3 µM) was 86.3% and the viability, T/C [13] was 94.5%. For the same compound, the viability, T/C [14] was 87.7%, the viability, T/C [15] was 88.3% and the viability, T/C [16] was 89.9%. For the same compound, the viability, T/C (second compound 3.16 µM, first compound 0.949 µM) was 87.9%, the viability, T/C (second compound 3.16 µM, first compound 3 µM) was 93.9% and the viability, T/C [17] was 97.8%. It also gave a viability, T/C [18] of 91.7%, a viability, T/C [19] of 90.8% and a viability, T/C [20] of 96.2%. It also gave a viability, T/C (second compound 10 µM, first compound 0.949 µM) of 94.5% and a viability, T/C (second compound 10 µM, first compound 3 µM) of 92.8%.

`Nc1ncn(C2CC(O)C(CO)S2)c(=O)n1` (stereo not given) + NC1CCC(NC2CC2c2ccccc2)CC1 showed an IC50 (second compound 0.1 µM) greater than 0.3 µM, an IC50 (second compound 0.316 µM) greater than 0.3 µM and an IC50 (second compound 1 µM) of 0.291 µM. For the same compound, the IC50 (second compound 3.16 µM) was greater than 0.3 µM, the IC50 (second compound 10 µM) was greater than 0.3 µM and the viability, T/C (second compound 0.1 µM, first compound 0.000949 µM) was 106%. For the same compound, the viability, T/C (second compound 0.1 µM, first compound 0.003 µM) was 111%, the viability, T/C [1] was 101% and the viability, T/C [2] was 72.9%. The viability, T/C [3] was 59.1%, the viability, T/C [4] was 48.3% and the viability, T/C (second compound 0.316 µM, first compound 0.000949 µM) was 114%. For the same compound, the viability, T/C (second compound 0.316 µM, first compound 0.003 µM) was 110%, the viability, T/C [5] was 102% and the viability, T/C [6] was 68.3%. For the same compound, the viability, T/C [7] was 60.6%, the viability, T/C [8] was 52.8% and the viability, T/C (second compound 1 µM, first compound 0.000949 µM) was 113%. The viability, T/C (second compound 1 µM, first compound 0.003 µM) was 106%, the viability, T/C [9] was 97.1% and the viability, T/C [10] was 75.4%. It also gave a viability, T/C [11] of 57.5%, a viability, T/C [12] of 50.1% and a viability, T/C (second compound 3.16 µM, first compound 0.000949 µM) of 101%. It also gave a viability, T/C (second compound 3.16 µM, first compound 0.003 µM) of 106%, a viability, T/C [13] of 86.1% and a viability, T/C [14] of 72.8%. For the same compound, the viability, T/C [15] was 61.4%, the viability, T/C [16] was 53.7% and the viability, T/C (second compound 10 µM, first compound 0.000949 µM) was 110%. It also gave a viability, T/C (second compound 10 µM, first compound 0.003 µM) of 114%, a viability, T/C [17] of 91.3% and a viability, T/C [18] of 74.8%. For the same compound, the viability, T/C [19] was 67.7% and the viability, T/C [20] was 55.6%.
